“Also recorded” adds a separate entry of the source.
Assays:
[1] = tested on: Acute promyelocytic leukemia cells; conditions: differentiated down the neutrophil lineage for three days; cited from earlier work
[2] = tested on: P. falciparum-infected RBCs (iRBCs) and co-cultured uninfected RBCs (uRBCs); experiment: Microfluidic deformability cytometer: RBC mobility after artesunate treatment; type: cell-based, human; conditions: for separation resolution between iRBCs and uRBCs: after drug treatment vs without
Description: The deformability of both iRBCs and uRBCs were measured at 2, 4 and 6 hours after artesunate drug treatment (FIG. 60). A synchronized culture of rings with ˜15% parasitemia was resuspended at 0.1% hematocrit in malaria culture medium containing 0.01, 0.05 or 0.1 μg/ml of artesunate.
Layout program CleWin3.0 was used to design the microfluidic device, which consists of a 500×500 μm^2 inlet reservoir, a 500×500 μm^2 outlet reservoir, and parallel capillary channels with triangular pillar arrays (FIG. 55A). Three different pore-size of 2.5, 3.0 and 4.0 μm were designed for the capillary channels to test optimum deformation condition for the experiment. A silicon mold of the device was made using standard silicon processing techniques. The photolithography step was done using a 5× reduction step-and-repeat projection stepper (Nikon NSR2005i9, Nikon Prevision) and reactive-ion etching (RIE) techniques were used to give the mold a final depth of 4.2 μm. Final device was then casted from the silicon mold using polydimethylsiloxane (PDMS) and was sealed by a glass slide using oxygen plasma.
P. falciparum 3D7A parasites (from Malaria Research and Reference Reagent Source, American Type Culture Collection) were cultured in leukocyte-free human RBCs (Research Blood Components, Brighton Mass.) in RPMI 1640 complete medium as described (Trager and Jensen J. parasitol. 2005). Parasites cultures were synchronized by sorbitol lysis (Lambros, C 1979 J. parasitol.) two hours after merozoite invasion.
1× Phosphate buffered saline (PBS) was mixed with 1% w/v Bovine Serum Albumin (BSA) (Sigma-Aldrich, St. Louis, Mo.) as a stock solution and was fresh made on every experimental day. For experiments tracking fluid flow velocity, 200 nm FluoSpheres europium luminescent microspheres (Molecular Probes, Eugene, Oreg.) were used at a final concentration of 5.0×10^−[…] percent solids. For experiments involving only healthy RBCs, fresh whole blood (Research Blood Components, Brighton, Mass.) was used at 100 times dilution (i.e. 1 μl whole blood with 99 μl stock solution). For experiments involving parasitized cells, 1 ml of cultured cells were spun down at 1,000 rpm for 5 minute; 1 μl of the pellet was then aliquot to 200 μl stock solution.
10 μl of 1×10^−6M thiazole orange Orange (Invitrogen, Carlsbad, Calif.), which stains the RNA of the cell, was added to the aforementioned 200 μl iRBC solution 20 minutes before the experiment. The infected cells would appear fluorescent under the GFP filter set whereas the uninfected cells were seen as dark shadows.
To control the ambient temperature, the microscope surface was replaced by a heating chamber (Olympus), which was preheated to a desired temperature range (i.e. 30-40° C.) for 30 minutes before the beginning of every experiment. […]

RBCs = experiment: Deformability cytometer: velocity and passage of glutaraldehyde-treated RBCs; type: cell-based, human; conditions: 30 minutes in PBS; about 0.61 Pa/μm; FIG. 5B
Source text: A mold of the device was made on a silicon wafer using photolithography and reactive-ion etching techniques. A 5× reduction step-and-repeat projection stepper (Nikon NSR2005i9, Nikon Precision) was used for patterning. The spacing between pillars was 3 μm, and the depth of the device was 4.2 μm. The device was made using standard PDMS casting protocols and bonded to a glass slide.
PBS was mixed with 0.2% w/v Pluronic F-108 (BASF, Mount Olive, N.J.) and 1% w/v Bovine Serum Albumin (BSA) (Sigma-Aldrich, St. Louis, Mo.) as a stock solution to prevent RBC adhesion to the device walls. For the fluorescent bead experiments, 200 nm FluoSpheres europium luminescent microspheres (Molecular Probes, Eugene, Oreg.) diluted to a final concentration of 1.25×10^−5 percent solids were used.
In experiments involving blood, 1 μl of whole blood (−50% hematocrit) was diluted in 100 μl of the PBS-pluronic-BSA solution for all of the experiments. In experiments involving parasites that express GFP, no further treatment was performed. In experiments involving healthy RBCs, 1 μl of whole blood (Research Blood Components, Brighton, Mass.), 1 μl of 50 μg/ml of Cell Tracker Orange (Invitrogen, Carlsbad, Calif.), and 98 μl of PBS were mixed with the indicated concentration of glutaraldehyde and allowed to sit for 30 minutes. The sample was then washed 3 times with the PBS-Pluronic-BSA solution. […]

WT T cells = experiment: Micropipette aspiration of chemokine-stimulated migratory T cells (WT); type: cell-based, mouse
Description: (§1) Cells from the peripheral lymph nodes and the spleen of Balb/c mice and WAS−/− mice on Balb/c background were pooled and enriched using the EasySep Mouse CD8+ T Cell Enrichment Kit from STEMCELL Technologies (British Columbia, Canada). Enrichment was confirmed using fluorescence-activated cell sorting (FACS) by staining the cells with FITC/anti-Thy1.2 and PE/anti-CD8α antibodies (Abs). The'memory T cell population was assessed by evaluating the expression of CD44 and CD62L via FACS. T cells in an activation medium with 100 units/mL IL-2 and 1% anti-CD28 Ab were activated by plate-bound anti-CD3 Abs for 4 day at 37° C. The activation medium included RPMI with 10% FBS, 10 mM HEPES (1M), 1% NEAA, 1% sodium pyruvate (100 mM), 50 μM β-mercaptoethanol, 4 mM L-glutamine, and 100 μg/mL Pen/Strep. Cell activation was verified via FACS measurement of CD25.
(§2) Micropipettes made using a micropipette puller were trimmed to 2.5-3 or 4.5-5 μm inner diameter for testing naïve and activated T cells. MPA glass chambers consisted of a 24 mm×60 mm microscope coverslip bottom, a U-shaped parafilm spacer, and a 22 mm×22 mm microscope coverslip top. The assembly was baked for two hours at 80° C. to ensure good adhesion between the components.
(§3) Enriched WT and WAS−/− T cells in DMEM with 1% BSA and 0.1% Pen/Strep were induced to migrate through polycarbonate Transwell inserts (Costar, Cambridge, Mass.) with 5-μm pores in a 24-well plate toward a CCL19 chemokine source (R&D Systems, Minneapolis, Minn.). Inserts contained 5×10^5 cells in 100 μL of medium, and wells contained 1 mL of medium with either no CCL19 or 100 ng/mL of CCL19. Cells were allowed to migrate for ˜7 hours at 37° C., and those that crossed the membrane were collected and used for MPA studies.
3×10^5 cells in 100 μL RPMI with 10% FBS and 1% HEPES was stained with 10 μL trypan blue. The mixture was added to 600 μL of either the RPMI medium or the T cell activation medium with IL-2 for naïve and activated T cell testing. […] The cell movement in the micropipette was recorded with a CCD camera. […]

WAS−/− T cells [3] = experiment: In vitro Transwell cell migration toward CCL19 (WAS−/−); type: cell-based, mouse; conditions: seven hours of exposure to CCL19; 5-μm pore Transwell
Description: as §3

WAS−/− T cells [4] = experiment: Micropipette aspiration of chemokine-stimulated migratory T cells (WAS−/−); type: cell-based, mouse; conditions: naïve WAS−/− T cells that migrated toward CCL19 100 ng/mL, ~7 hours; mean+/−SD
Description: as §1
as §2, with “components. […]” for “components.”
3×10^5 cells in 100 μL RPMI with 10% FBS and 1% HEPES was stained with 10 μL trypan blue. […] The cell movement in the micropipette was recorded with a CCD camera. […]

In the case of CC1=C(/C=C/C(C)=C/C=C/C(C)=C/C(=O)O)C(C)(C)CCC1 [all-trans retinoic acid], the “compliance increase vs control” value [1] is given as 45%.

For C[C@H]1[C@H](OC(=O)CCC(=O)O)O[C@@H]2O[C@@]3(C)CC[C@H]4[C@H](C)CC[C@@H]1[C@@]24OO3 [artesunate], the “cell mobility change due to drug treatment” value ([2]; FIG. 60, 2, 4 and 6 hours, 0.01 to 0.1 μg/ml) was “significant decrease in cell mobility”, the “stiffening effect on iRBCs and uRBCs” value ([2]; after artesunate treatment) was “stiffening effect on both iRBCs and uRBCs; also recorded: both iRBCs and uRBCs stiffened considerably” and the “separation resolution between iRBCs and uRBCs” value [2] was “almost doubled”. For the same molecule, the “separation resolution between iRBCs and uRBCs” value ([2]; listed as Artesunate) was “doubled”.

For O=CCCCC=O [glutaraldehyde], the “RBC stiffness / velocity with increasing concentration” value (RBCs) was “progressively stiffer with decreasing velocity”.

B1: CCL19: chemokine (R&D Systems) used as chemoattractant for T cells (protein, UniProt Q99731 22-98, looked up)
C-C motif chemokine 19: GTNDAEDCCLSVTQKPIPGYIVRNFHYLLIKDGCRVPAVVFTTLRGRQLCAPPDQPWVERIIQRLQRTSAKMKRRSS
For B1, the “reduction of modulus from the value in the absence of CCL19” value (WT T cells; migratory WT cells) was “more than 2 times”, the “stiffness relative to activated cells” value (WT T cells; migratory WT cells vs activated WT T cells) was “about 1.4 times” and the “average apparent Young's modulus” value (WT T cells; naïve WT T cells that migrated toward CCL19 100 ng/mL, ~7 hours, mean+/−SD) was 128+/−33 Pa. The cells migrated (WAS−/− T cells [3]) was roughly 6.4% and the “average apparent Young's modulus” value (WAS−/− T cells [4]) was 152+/−102 Pa.
